Test results: patent US20250154150A1, “SUBSTITUTED FUSED RING COMPOUND, PHARMACEUTICAL COMPOSITION THEREOF, PREPARATION METHOD THEREFOR AND USES THEREOF” (SUZHOU YABAO PHARMACEUTICAL R&D CO., LTD., priority 2022, published 2025)

Legend:
LRRK2 G2019S = LRRK2 G2019S (Homo sapiens (Human), UniProt Q5S007, G2019S); test: Kinase inhibition assay (ADP-Glo, LRRKtide substrate); type: biochemical; details: LRRK2 G2019S protein, room temperature
Procedure: Kinase LRRK2 G2019S protein was derived from Carna, LRRKtide was derived from Signalchem, ATP was derived from Promega, and DMSO was derived from Sigma.
All assays were performed at room temperature. The test compounds were dissolved and diluted, and then added to a 384-well plate. 2.5 μL of 2× kinase reaction buffer was added, and the mixture was centrifuged. 2.5 μL of a mixture of 2× substrate and ATP was added, and the mixture was centrifuged. 4 μL of ADP-Glo reagent was added, and the mixture was incubated at room temperature for 40 min. 8 μL of […] was added, and the mixture was incubated at room temperature for 40 min. Then, the data were read using the Envision 2104 multi-label Reader.

LRRK2-2019S = LRRK2-2019S (Homo sapiens (Human), UniProt Q5S007, G2019S); test: HEK293 cell kinase inhibition assay (NanoBRET); type: cell-based; details: HEK293 cells
Sequence of LRRK2-2019S (Q5S007 whole entry G2019S): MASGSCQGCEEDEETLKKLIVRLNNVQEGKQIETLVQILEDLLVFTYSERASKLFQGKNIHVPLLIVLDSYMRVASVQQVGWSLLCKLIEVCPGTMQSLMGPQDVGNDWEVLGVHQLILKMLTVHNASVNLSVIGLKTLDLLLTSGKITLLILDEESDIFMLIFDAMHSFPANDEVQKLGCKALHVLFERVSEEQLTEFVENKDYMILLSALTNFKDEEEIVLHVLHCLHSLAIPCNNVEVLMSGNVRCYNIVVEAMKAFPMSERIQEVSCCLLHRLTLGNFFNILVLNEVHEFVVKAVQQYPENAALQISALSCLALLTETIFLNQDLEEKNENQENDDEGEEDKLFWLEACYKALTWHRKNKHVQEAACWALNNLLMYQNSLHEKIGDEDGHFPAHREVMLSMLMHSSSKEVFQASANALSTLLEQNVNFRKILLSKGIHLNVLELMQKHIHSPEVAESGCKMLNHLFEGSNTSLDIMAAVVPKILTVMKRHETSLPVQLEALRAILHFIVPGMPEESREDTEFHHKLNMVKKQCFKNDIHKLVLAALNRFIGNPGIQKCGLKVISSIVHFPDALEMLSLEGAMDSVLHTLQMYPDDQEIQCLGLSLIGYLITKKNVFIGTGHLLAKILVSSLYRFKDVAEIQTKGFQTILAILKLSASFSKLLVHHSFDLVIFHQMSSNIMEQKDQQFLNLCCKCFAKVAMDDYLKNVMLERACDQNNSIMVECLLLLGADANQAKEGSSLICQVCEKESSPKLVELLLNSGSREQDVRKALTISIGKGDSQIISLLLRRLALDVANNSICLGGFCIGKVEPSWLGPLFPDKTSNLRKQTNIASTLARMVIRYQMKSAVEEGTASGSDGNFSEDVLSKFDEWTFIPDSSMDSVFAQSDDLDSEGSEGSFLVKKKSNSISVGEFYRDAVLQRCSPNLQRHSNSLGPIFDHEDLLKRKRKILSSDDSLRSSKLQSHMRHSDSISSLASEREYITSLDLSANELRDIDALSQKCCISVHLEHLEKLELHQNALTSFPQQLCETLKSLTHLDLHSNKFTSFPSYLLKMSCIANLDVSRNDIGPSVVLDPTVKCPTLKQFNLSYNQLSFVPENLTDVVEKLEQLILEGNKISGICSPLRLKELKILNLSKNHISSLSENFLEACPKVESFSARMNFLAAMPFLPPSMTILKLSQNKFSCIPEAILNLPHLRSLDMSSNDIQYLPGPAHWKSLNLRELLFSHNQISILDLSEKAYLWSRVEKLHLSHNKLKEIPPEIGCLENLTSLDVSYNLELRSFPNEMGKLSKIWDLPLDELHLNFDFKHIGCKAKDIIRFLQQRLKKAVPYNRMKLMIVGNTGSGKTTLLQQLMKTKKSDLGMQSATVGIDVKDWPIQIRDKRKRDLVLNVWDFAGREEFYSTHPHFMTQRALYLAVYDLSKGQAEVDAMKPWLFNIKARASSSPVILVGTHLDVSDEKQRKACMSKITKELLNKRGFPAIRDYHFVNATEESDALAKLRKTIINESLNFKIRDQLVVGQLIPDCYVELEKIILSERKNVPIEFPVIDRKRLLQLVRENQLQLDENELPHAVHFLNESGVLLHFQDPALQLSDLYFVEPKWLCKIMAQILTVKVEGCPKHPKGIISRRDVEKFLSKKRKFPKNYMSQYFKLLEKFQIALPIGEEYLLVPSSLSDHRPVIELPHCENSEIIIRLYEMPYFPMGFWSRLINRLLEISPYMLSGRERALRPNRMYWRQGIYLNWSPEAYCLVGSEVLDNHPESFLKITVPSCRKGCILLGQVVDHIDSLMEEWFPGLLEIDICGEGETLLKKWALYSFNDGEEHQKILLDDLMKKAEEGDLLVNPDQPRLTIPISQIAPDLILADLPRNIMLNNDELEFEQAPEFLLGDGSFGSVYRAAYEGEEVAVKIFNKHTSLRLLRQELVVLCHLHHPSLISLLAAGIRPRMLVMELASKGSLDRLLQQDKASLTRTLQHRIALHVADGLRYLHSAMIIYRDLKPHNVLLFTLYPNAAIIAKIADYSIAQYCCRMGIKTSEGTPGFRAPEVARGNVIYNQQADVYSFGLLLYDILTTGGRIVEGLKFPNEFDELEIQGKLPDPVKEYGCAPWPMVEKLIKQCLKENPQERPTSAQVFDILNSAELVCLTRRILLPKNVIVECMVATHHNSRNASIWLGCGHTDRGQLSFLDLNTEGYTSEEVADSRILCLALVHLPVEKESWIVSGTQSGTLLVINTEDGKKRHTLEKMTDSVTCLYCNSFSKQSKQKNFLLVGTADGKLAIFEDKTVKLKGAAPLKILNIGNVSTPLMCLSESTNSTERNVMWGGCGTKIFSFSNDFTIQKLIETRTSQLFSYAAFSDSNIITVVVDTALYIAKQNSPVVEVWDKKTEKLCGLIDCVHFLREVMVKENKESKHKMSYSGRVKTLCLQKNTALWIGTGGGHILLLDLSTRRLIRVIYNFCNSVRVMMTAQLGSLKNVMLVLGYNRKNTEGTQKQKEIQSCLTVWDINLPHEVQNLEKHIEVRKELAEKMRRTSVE
Procedure: (§1) HEK293 cells were cultured, and collected by adding trypsin. Culture medium was added, and the cell density was adjusted to 2×10^5/mL. Liposome-DNA complexes were constructed and mixed with HEK293 cells at a ratio of 1:20. The mixture was added to a 384-well plate, and incubated at 37° C. for 20-30 h. A mixed solution of enzyme substrate and the test compound was added, and the mixture was incubated at room temperature for 2-3 min. NanoBRET reagent (Promega) was added, and bioluminescence was measured within 10 min using the microplate reader (Envision 2104) at 450 nm for the donor luciferase protein (donor) and 610 nm for the acceptor fluorescent group (acceptor). The BRET ratio for the test compounds was calculated using the following formula, including a background correction option.
(§2) [formula] • Acceptorsample: 610 nm fluorescence with the test compound; • Donorsample: 450 nm fluorescence with the test compound; • Acceptorno-tracer control: 610 nm fluorescence of background (without the test compound); • Donorno-tracer control: 450 nm fluorescence of background (without the test compound)
(§3) The inhibitory activity of the test compounds on cellular LRRK2 enzyme was calculated by the following formula: […]
(§4) The IC50 values of the test compounds against cellular LRRK2 enzyme were calculated using Graphpad software. Non-linear regression fitting (dose-effect−variable slope method) was performed on the percentage inhibition rate versus logarithmic concentration curve of the compounds.
(§5) [formula] • X: logarithmic inhibitor concentration; Y: percentage inhibition rate; Bottom: a minimum value; Top: a maximum value; Hill Slope: hill slope

LRRK2-R1441C = LRRK2-R1441C (Homo sapiens (Human), UniProt Q5S007, R1441C); test: HEK293 cell kinase inhibition assay (NanoBRET); type: cell-based; details: HEK293 cells
Sequence of LRRK2-R1441C (Q5S007 whole entry R1441C): as the sequence (Q5S007 whole entry G2019S) above, with R1441C, S2019G counted along it
Procedure: as §1, §2, §3, §4, §5

LRRK2 [1] = target: LRRK2 (Homo sapiens (Human), UniProt Q5S007); test: HEK293 cell kinase inhibition assay (NanoBRET); type: cell-based; details: HEK293 cells
Sequence of LRRK2 (Homo sapiens (Human), UniProt Q5S007) (Q5S007 whole entry): as the sequence (Q5S007 whole entry G2019S) above, with S2019G counted along it
Procedure: as §1, §2, §3, §4, §5

LRRK2 [2] = test: In vivo efficacy, oral administration: LRRK2 phosphorylation (pS935-LRRK2/LRRK2) in brain tissue by Western blot; design: species or system LRRK2-G2019S mice
Text: 1. Objective: The study aims to determine the in vivo efficacy of compound 527 by observing the inhibition effect of compound 527 on the phosphorylation level of LRRK2 in the brains of G2019S mutant LRRK2 gene knock-in mice following oral administration.
(1) Animals: B6.Cg-Tg(Lrrk2*G2019S)2Yue/J transgenic mice were purchased from Jackson Laboratory. The mice were bred with C57BL/6J mice to produce LRRK2 heterozygote mice carrying the G2019S mutation (LRRK2-G2019S mice). The mice included an equal number of male and female individuals, with body weights ranging from 16-20 g and ages between 15-17 weeks.
(2) Grouping and administration: The mice were randomly divided into 5 experimental groups based on their body weights. Each group consisted of 8 animals, with 4 males and 4 females. The specific administration for each experimental group is detailed in the following Table 1. Group G1 served as the vehicle control group. For group G2 to group G5, compound 527 was administered at doses of 1 mg/kg, 3 mg/kg, 10 mg/kg, and 30 mg/kg, respectively.
(3) Intracerebral LRRK2 activity assay: One hour after administration, the animals were euthanized using CO2. The brain tissues were collected, rapidly frozen in liquid nitrogen, and then cryopreserved at −80 C until subsequent experiments. The brain tissues were homogenized in an RIPA buffer containing cOmplete™ protease inhibitor mixture (Roche, 04693124001) and phosphatase inhibitor mixture 2 (sigma, R^0278). Protein quantification was performed using the BCA method. The phosphorylation level of LRRK2 at pS935 site (primary antibody Anti-LRRK2 (phospho S935) antibody, abcam, ab133450), and the total LRRK2 level (primary antibody Anti-LRRK2 antibody, Abcam, ab33518) were detected by Western blot method. The activity level of LRRK2 in the brain was represented by the phosphorylation level at S935 site of LRRK2, i.e., the ratio of pS935-LRRK2 to total LRRK2 (pS935-LRRK2/LRRK2).

[3] = LRRK2-G2019S mice, oral gavage, single dose, brain collected 1 h after administration

Sequence of LRRK2 G2019S (Q5S007 whole entry G2019S): as the sequence (Q5S007 whole entry G2019S) above

SMILES | IC50 (LRRK2 G2019S) | also measured
C[C@@H]1CN(c2cc(-c3n[nH]c4ccnc(NCC(F)(F)F)c34)ncn2)C[C@H](C)O1 [Compound 447] | 2.8 nM | IC50 (LRRK2-2019S): 97.5 nM; IC50 (LRRK2-R1441C): 297 nM; IC50 (LRRK2 [1]): 247 nM
C[C@@H]1C[C@@H](Nc2nccc3[nH]nc(-c4cc(N5C[C@H]6C[C@@H]5CO6)ncn4)c23)C[C@H](C)O1 [Compound 440] | 36.5 nM | 
FC(F)(F)CNc1nccc2[nH]nc(-c3cc(N4C[C@@H]5C[C@H]4CO5)ncn3)c12 [Compound 486] | 3.1 nM | 
C[C@@H]1C[C@H](Nc2nccc3[nH]nc(-c4cc(N5C[C@@H](C)O[C@@H](C)C5)ncn4)c23)C[C@H](C)O1 [Compound 407, 3-(6-((2S,6R)-2,6-dimethylmorpholinyl)pyrimidin-4-yl)-N-((2R,4R,6S)-2,6-dimethyltetrahydro-2H-pyran-4-yl)-1H-pyrazolo[4,3-c]pyridine-4-amine] | 2.2 nM | 
CC(C)n1cc(-c2n[nH]c3ccnc(NCC(F)(F)F)c23)cn1 [Compound 515] | 27.7 nM | 
C[C@@H]1C[C@H](Nc2nccc3[nH]nc(-c4cc(N5C[C@@H]6C[C@H]5CO6)ncn4)c23)C[C@H](C)O1 [Compound 424] | 3.7 nM | 
FC(F)(F)CNc1nccc2[nH]nc(-c3cc(N4C5CCC4COC5)ncn3)c12 [Compound 520] | 4.8 nM | 
C[C@@H]1C[C@H](Nc2nccc3[nH]nc(-c4cc(N5C[C@H]6C[C@@H]5CO6)ncn4)c23)C[C@H](C)O1 [Compound 425] | 1.9 nM | 
C[C@@H]1CN(c2cc(-c3n[nH]c4ccnc(NC5(C)CC5)c34)ncn2)C[C@H](C)O1 [Compound 391] | 9.5 nM | 
FC(F)(F)CNc1nccc2[nH]nc(-c3cc(N4C[C@H]5C[C@@H]4CO5)ncn3)c12 [Compound 487] | 2.4 nM | 

Continued, in another order:

IC50 (LRRK2 G2019S) | SMILES | also measured
1.6 nM | C[C@@H]1CN(c2cc(-c3n[nH]c4ccnc(N[C@@H](C)C(F)(F)F)c34)ncn2)C[C@H](C)O1 [Compound 528] | 
1.3 nM | C[C@H]1CN(c2cc(-c3n[nH]c4ccnc(N[C@H](C)C(F)(F)F)c34)ncn2)C[C@H](C)O1 [Compound 561] | 
5.1 nM | O[C@@H]1C[C@H](O)CN(c2cc(-c3n[nH]c4ccnc(NCC(F)(F)F)c34)ncn2)C1 [Compound 526, (3S,5R)-1-(6-(4-((2,2,2-trifluoroethyl)amino)-1H-pyrazolo[4,3-c]pyridin-3-yl)pyrimidin-4-yl)piperidine-3,5-diol] | 
12 nM | FC(F)(F)CNc1nccc2[nH]nc(-c3ccccn3)c12 [Control compound, reference compound] | 
1.2 nM | C[C@@H]1CN(c2cc(-c3n[nH]c4ccnc(N[C@H](C)C(F)(F)F)c34)ncn2)C[C@H](C)O1 [Compound 527] | inhibition of the phosphorylation of LRRK2 in the brain tissues (LRRK2 [2]; 30 mg/kg oral gavage, 1 h, LRRK2-G2019S mice, stated as the definition of the maximum effective dose): 60%; effective dose for inhibiting the phosphorylation of LRRK2 in the brain tissues (LRRK2 [2]; [3]): 10 mg/kg; maximum effective dose (defined as 60% inhibition of the phosphorylation of LRRK2) (LRRK2 [2]; [3]): 30 mg/kg; human equivalent dose corresponding to the effective dose (LRRK2 [2]; calculated for a body weight of 70 kg, from 10 mg/kg in mice): 57 mg; human equivalent dose corresponding to the maximum effective dose (LRRK2 [2]; calculated for a body weight of 70 kg, from 30 mg/kg in mice): 171 mg; IC50 (LRRK2-2019S): 16.3 nM; IC50 (LRRK2-R1441C): 45.9 nM; IC50 (LRRK2 [1]): 24.7 nM
2.4 nM | N#CC1(c2cc(-c3n[nH]c4ccnc(NCC(F)(F)F)c34)ncn2)CCC1 [Compound 523, 1-(6-(4-((2,2,2-trifluoroethyl)amino)-1H-pyrazolo[4,3-c]pyridin-3-yl)pyrimidin-4-yl)cyclobutane-1-carbonitrile] | 
